What was measured:
[1] = biological target: Atypical kinase COQ8B, mitochondrial (Homo sapiens) (UniProt Q96D53)
[2] = biological target: Ankyrin repeat and protein kinase domain-containing protein 1 (Homo sapiens) (UniProt Q8NFD2)
[3] = biological target: Mitogen-activated protein kinase kinase kinase 6 (Homo sapiens) (UniProt O95382)
[4] = biological target: Aurora kinase C (Homo sapiens) (UniProt Q9UQB9)
[5] = biological target: Cytoplasmic tyrosine-protein kinase BMX (Homo sapiens) (UniProt P51813)
Sequence of Cytoplasmic tyrosine-protein kinase BMX (Homo sapiens) (P51813 whole entry): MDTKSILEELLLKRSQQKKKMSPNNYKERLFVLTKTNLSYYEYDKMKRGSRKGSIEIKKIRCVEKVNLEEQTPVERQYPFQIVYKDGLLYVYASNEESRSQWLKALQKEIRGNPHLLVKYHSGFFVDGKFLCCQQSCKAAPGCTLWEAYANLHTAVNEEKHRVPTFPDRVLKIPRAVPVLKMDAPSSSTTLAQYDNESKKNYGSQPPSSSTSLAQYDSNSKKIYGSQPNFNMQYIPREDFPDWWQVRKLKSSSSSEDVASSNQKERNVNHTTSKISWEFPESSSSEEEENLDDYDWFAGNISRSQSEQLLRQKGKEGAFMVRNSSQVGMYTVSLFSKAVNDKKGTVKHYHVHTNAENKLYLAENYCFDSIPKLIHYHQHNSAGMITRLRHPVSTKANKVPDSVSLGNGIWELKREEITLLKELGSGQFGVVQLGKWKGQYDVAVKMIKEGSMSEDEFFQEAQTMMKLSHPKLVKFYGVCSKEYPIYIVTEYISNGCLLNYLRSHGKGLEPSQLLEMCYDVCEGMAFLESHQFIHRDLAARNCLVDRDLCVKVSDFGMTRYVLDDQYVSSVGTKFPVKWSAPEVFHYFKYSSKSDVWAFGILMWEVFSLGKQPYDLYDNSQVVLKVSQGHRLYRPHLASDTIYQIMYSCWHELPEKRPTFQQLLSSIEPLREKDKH

[6] = biological target: Calcium/calmodulin-dependent protein kinase type 1B (Homo sapiens) (UniProt Q6P2M8)
[7] = biological target: Calcium/calmodulin-dependent protein kinase kinase 1 (Homo sapiens) (UniProt Q8N5S9)
[8] = biological target: Cyclin-dependent kinase 2 (Homo sapiens, UniProt P24941)
[9] = biological target: Dual specificity protein kinase CLK4 (Homo sapiens, UniProt Q9HAZ1)
[10] = biological target: Tyrosine-protein kinase CSK (Homo sapiens) (UniProt P41240)
[11] = biological target: Casein kinase I isoform gamma-2 (Homo sapiens) (UniProt P78368)
[12] = biological target: Serine/threonine-protein kinase DCLK2 (Homo sapiens) (UniProt Q8N568)
[13] = biological target: Serine/threonine-protein kinase DCLK3 (Homo sapiens) (UniProt Q9C098)
[14] = biological target: Eukaryotic translation initiation factor 2-alpha kinase 1 (Homo sapiens) (UniProt Q9BQI3)
[15] = biological target: Ephrin type-A receptor 5 (Homo sapiens) (UniProt P54756)
[16] = biological target: Tyrosine-protein kinase Fes/Fps (Homo sapiens) (UniProt P07332)
[17] = system: Receptor-type tyrosine-protein kinase FLT3 (Homo sapiens), P36888 [N841I]
[18] = system: Receptor-type tyrosine-protein kinase FLT3 (Homo sapiens), P36888 [R834Q]
[19] = biological target: Serine/threonine-protein kinase haspin (Homo sapiens) (UniProt Q8TF76)
[20] = biological target: Serine/threonine-protein kinase MARK2 (Homo sapiens, UniProt Q7KZI7)
Sequence of Serine/threonine-protein kinase MARK2 (Q7KZI7 whole entry): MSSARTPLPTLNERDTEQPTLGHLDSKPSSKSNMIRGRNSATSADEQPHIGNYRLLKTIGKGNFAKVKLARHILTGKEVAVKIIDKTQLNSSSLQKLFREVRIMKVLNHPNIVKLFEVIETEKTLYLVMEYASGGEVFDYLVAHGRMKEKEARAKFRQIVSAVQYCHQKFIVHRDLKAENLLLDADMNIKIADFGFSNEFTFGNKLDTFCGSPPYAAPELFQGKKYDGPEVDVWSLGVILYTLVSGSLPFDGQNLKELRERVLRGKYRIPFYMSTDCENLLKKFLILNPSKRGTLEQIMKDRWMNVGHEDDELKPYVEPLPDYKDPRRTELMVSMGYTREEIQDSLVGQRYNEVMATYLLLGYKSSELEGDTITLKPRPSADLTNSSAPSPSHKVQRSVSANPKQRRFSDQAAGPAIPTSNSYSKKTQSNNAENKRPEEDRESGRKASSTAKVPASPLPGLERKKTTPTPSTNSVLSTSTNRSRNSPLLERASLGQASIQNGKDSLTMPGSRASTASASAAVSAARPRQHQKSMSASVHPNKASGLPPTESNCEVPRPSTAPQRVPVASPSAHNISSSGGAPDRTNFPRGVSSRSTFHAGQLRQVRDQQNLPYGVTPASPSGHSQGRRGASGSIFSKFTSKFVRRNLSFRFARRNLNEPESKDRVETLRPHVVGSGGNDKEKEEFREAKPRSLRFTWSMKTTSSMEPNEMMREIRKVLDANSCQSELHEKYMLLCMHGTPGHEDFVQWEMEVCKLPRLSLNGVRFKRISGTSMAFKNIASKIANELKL

[21] = biological target: Maternal embryonic leucine zipper kinase (Homo sapiens) (UniProt Q14680)
[22] = biological target: Serine/threonine-protein kinase 26 (Homo sapiens, UniProt Q9P289)
[23] = biological target: Serine/threonine-protein kinase Nek2 (Homo sapiens) (UniProt P51955)
Sequence of Serine/threonine-protein kinase Nek2 (Homo sapiens) (P51955 whole entry): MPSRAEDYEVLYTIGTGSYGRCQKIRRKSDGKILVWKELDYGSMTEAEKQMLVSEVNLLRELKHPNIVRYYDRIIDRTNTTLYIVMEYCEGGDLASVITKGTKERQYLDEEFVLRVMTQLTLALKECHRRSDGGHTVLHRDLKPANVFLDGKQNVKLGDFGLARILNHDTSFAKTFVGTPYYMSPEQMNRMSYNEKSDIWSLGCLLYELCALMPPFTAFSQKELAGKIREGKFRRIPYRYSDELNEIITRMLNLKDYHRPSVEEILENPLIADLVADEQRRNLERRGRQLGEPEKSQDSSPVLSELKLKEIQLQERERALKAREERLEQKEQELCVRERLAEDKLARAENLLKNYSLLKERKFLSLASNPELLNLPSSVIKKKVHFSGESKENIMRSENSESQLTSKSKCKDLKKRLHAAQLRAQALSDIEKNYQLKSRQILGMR

[24] = biological target: Serine/threonine-protein kinase Nek6 (Homo sapiens) (UniProt Q9HC98)
[25] = biological target: Mitogen-activated protein kinase 11 (Homo sapiens) (UniProt Q15759)
Sequence of Mitogen-activated protein kinase 11 (Homo sapiens) (Q15759 whole entry): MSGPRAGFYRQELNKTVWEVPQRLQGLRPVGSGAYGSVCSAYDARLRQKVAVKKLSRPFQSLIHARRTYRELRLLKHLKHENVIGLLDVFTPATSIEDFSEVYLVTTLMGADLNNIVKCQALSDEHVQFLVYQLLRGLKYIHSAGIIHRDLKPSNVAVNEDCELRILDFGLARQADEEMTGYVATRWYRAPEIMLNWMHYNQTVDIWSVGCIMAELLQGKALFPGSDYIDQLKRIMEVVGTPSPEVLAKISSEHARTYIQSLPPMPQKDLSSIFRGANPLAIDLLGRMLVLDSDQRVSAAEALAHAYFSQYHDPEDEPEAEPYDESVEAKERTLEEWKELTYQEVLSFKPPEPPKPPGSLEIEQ

[26] = biological target: Platelet-derived growth factor receptor beta (Homo sapiens) (UniProt P09619)
[27] = biological target: Phosphorylase b kinase regulatory subunit alpha, liver isoform (Homo sapiens) (UniProt P46019)
[28] = system: Phosphatidylinositol 4,5-bisphosphate 3-kinase catalytic subunit alpha isoform (Homo sapiens), P42336 [E545A]
[29] = biological target: Phosphatidylinositol 4,5-bisphosphate 3-kinase catalytic subunit delta isoform (Homo sapiens) (UniProt O00329)
[30] = biological target: Serine/threonine-protein kinase PLK3 (Homo sapiens) (UniProt Q9H4B4)
[31] = biological target: Serine/threonine-protein kinase D1 (Homo sapiens) (UniProt Q15139)
[32] = system: Proto-oncogene tyrosine-protein kinase receptor Ret (Homo sapiens), P07949 [M918T]
Sequence of Proto-oncogene tyrosine-protein kinase receptor Ret (Homo sapiens), P07949 [M918T] (P07949 whole entry M918T): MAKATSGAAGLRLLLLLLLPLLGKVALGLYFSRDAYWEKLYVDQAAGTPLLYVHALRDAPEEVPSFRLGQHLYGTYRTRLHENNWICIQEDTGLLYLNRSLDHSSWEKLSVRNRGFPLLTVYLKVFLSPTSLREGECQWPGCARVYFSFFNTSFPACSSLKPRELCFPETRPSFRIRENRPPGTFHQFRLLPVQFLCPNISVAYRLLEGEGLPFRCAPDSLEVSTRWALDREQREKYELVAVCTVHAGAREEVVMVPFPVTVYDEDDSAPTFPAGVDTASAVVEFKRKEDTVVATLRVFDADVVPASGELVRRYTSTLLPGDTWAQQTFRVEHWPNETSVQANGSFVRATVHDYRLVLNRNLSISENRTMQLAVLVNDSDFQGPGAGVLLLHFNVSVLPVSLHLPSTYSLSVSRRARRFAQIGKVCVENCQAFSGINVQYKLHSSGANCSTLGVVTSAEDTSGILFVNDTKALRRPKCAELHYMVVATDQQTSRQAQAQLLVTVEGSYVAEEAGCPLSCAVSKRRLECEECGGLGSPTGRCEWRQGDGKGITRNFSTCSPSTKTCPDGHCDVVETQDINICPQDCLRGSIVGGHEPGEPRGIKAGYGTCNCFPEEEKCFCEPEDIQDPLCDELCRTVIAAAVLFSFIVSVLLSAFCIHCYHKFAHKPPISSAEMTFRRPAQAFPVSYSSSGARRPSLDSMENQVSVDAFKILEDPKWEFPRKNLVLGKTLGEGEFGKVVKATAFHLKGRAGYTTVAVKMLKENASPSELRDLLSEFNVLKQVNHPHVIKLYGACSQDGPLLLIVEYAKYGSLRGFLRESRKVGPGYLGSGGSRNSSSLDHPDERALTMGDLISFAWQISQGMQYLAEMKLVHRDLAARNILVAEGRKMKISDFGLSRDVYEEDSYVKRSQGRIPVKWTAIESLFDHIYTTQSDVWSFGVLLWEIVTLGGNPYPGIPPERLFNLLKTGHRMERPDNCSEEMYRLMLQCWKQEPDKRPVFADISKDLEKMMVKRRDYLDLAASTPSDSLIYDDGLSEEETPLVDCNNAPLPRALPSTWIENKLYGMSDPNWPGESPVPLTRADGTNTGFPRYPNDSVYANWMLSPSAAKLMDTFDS

[33] = biological target: Ribosomal protein S6 kinase alpha-1 (Homo sapiens) (UniProt Q15418)
[34] = biological target: Ribosomal protein S6 kinase alpha-3 (Homo sapiens) (UniProt P51812)
[35] = biological target: Ribosomal protein S6 kinase alpha-2 (Homo sapiens) (UniProt Q15349)
[36] = biological target: Ribosomal protein S6 kinase beta-1 (Homo sapiens) (UniProt P23443)
[37] = biological target: Serine/threonine-protein kinase SBK1 (Homo sapiens) (UniProt Q52WX2)
[38] = biological target: Mitogen-activated protein kinase kinase kinase 7 (Homo sapiens) (UniProt O43318)
Sequence of Mitogen-activated protein kinase kinase kinase 7 (Homo sapiens) (O43318 whole entry): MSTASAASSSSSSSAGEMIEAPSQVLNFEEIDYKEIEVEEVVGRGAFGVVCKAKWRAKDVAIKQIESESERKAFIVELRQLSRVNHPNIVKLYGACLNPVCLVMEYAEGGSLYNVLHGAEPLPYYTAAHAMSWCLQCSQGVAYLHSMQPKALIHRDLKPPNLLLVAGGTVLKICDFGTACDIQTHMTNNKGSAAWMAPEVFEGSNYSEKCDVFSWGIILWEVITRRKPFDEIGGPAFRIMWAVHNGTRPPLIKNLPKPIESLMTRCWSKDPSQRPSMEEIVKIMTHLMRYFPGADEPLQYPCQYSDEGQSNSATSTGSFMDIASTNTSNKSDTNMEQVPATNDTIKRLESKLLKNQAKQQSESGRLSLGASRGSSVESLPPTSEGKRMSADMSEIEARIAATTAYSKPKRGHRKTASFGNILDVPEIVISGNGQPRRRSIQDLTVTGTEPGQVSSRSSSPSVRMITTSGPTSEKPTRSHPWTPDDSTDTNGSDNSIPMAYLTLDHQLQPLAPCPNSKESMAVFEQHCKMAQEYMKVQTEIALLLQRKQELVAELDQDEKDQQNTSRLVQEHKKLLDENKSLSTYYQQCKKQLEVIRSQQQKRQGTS

[39] = biological target: TGF-beta receptor type-1 (Homo sapiens) (UniProt P36897)
Sequence of TGF-beta receptor type-1 (Homo sapiens) (P36897 whole entry): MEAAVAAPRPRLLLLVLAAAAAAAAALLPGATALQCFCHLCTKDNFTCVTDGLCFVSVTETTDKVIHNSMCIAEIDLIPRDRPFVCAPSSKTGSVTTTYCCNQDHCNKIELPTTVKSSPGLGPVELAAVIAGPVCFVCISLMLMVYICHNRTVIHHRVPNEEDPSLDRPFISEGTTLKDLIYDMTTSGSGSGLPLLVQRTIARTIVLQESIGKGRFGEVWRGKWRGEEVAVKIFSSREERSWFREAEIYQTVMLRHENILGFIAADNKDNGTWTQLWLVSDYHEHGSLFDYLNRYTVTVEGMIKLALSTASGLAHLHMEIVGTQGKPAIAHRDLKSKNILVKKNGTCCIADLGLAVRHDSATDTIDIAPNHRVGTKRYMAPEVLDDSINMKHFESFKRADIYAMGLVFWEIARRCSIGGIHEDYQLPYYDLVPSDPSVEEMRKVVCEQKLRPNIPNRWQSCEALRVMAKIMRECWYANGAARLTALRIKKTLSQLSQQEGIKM

[40] = biological target: Tyrosine-protein kinase receptor Tie-1 (Homo sapiens) (UniProt P35590)
[41] = biological target: Non-receptor tyrosine-protein kinase TYK2 (Homo sapiens) (UniProt P29597)
[42] = biological target: Wee1-like protein kinase 2 (Homo sapiens) (UniProt P0C1S8)
[43] = biological target: Serine/threonine-protein kinase 32C (Homo sapiens) (UniProt Q86UX6)
[44] = biological target: Beta-1 adrenergic receptor (Homo sapiens) (UniProt P08588); conditions: Compound concentration 10.0 uM
[45] = biological target: Beta-3 adrenergic receptor (Homo sapiens) (UniProt P13945); conditions: Compound concentration 10.0 uM
[46] = Compound concentration 1000.0 nM
[47] = Compound concentration 100.0 nM

Sequence of Aurora kinase C (Homo sapiens) (Q9UQB9 whole entry): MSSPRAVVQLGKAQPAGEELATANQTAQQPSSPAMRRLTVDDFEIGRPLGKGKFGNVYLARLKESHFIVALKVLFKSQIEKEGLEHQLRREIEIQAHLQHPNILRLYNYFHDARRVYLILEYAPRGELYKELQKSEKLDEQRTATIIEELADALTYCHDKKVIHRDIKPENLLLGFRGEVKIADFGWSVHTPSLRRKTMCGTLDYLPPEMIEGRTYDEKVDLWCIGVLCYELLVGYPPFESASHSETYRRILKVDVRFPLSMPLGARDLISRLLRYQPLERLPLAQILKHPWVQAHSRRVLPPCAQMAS

C[C@H](NC(=O)Nc1cc2[nH]ncc2c(CO)n1)c1ccccn1 [ERKi-NC]
inactive: residual activity [1, 46] 99.8% | residual activity [2, 46] 100% | residual activity [3, 46] 67.4% | residual activity [4, 46] 100% | residual activity [5, 46] 91.7% | residual activity [6, 46] 98.5% | residual activity [7, 46] 100% | residual activity [8, 46] 100% | residual activity [9, 46] 78.8% | residual activity [10, 46] 100% | residual activity [11, 46] 100% | residual activity [12, 46] 100% | residual activity [13, 46] 84.5% | residual activity [14, 46] 100% | residual activity [15, 46] 100% | residual activity [16, 46] 100% | residual activity [17, 46] 100% | residual activity [18, 46] 94.5% | residual activity [19, 46] 72.1% | residual activity [20, 46] 100% | residual activity [21, 46] 100% | residual activity [22, 46] 100% | residual activity [23, 46] 96.9% | residual activity [24, 46] 100% | residual activity [25, 46] 100% | residual activity [26, 46] 100% | residual activity [27, 46] 100% | residual activity [28, 46] 71.9% | residual activity [29, 46] 100% | residual activity [30, 46] 68.7% | residual activity [31, 46] 89.4% | residual activity [32, 46] 100% | residual activity [33, 46] 90.3% | residual activity [34, 46] 80.7% | residual activity [35, 46] 95.3% | residual activity [36, 46] 58.3% | residual activity [37, 46] 100% | residual activity [38, 46] 100% | residual activity [39, 46] 60.8% | residual activity [40, 46] 86.8% | residual activity [41, 46] 100% | residual activity [42, 46] 100% | residual activity [43, 46] 74% | inhibition [44] 28.2% | inhibition [45] 13.6%

C[C@@H](NC(=O)Nc1cc2[nH]ncc2c(CO)n1)c1ccccc1 [ERKi]
inactive: residual activity [1, 47] 86.7% | residual activity [2, 47] 78.2% | residual activity [3, 47] 99.3% | residual activity [4, 47] 100% | residual activity [5, 47] 94.3% | residual activity [6, 47] 91.2% | residual activity [7, 47] 87.5% | residual activity [8, 47] 75.7% | residual activity [9, 47] 66.6% | residual activity [10, 47] 77.1% | residual activity [11, 47] 100% | residual activity [12, 47] 97.7% | residual activity [13, 47] 97.1% | residual activity [14, 47] 92.8% | residual activity [15, 47] 87.9% | residual activity [16, 47] 100% | residual activity [17, 47] 88.2% | residual activity [18, 47] 56.8% | residual activity [19, 47] 53.7% | residual activity [20, 47] 100% | residual activity [21, 47] 58.7% | residual activity [22, 47] 94.9% | residual activity [23, 47] 100% | residual activity [24, 47] 98.9% | residual activity [25, 47] 100% | residual activity [26, 47] 95.8% | residual activity [27, 47] 78.8% | residual activity [28, 47] 78.4% | residual activity [29, 47] 81.9% | residual activity [30, 47] 89% | residual activity [31, 47] 100% | residual activity [32, 47] 100% | residual activity [33, 47] 89.9% | residual activity [34, 47] 70% | residual activity [35, 47] 94.1% | residual activity [36, 47] 90% | residual activity [37, 47] 53.3% | residual activity [38, 47] 82.6% | residual activity [39, 47] 100% | residual activity [40, 47] 71.2% | residual activity [41, 47] 97.8% | residual activity [42, 47] 77.6% | residual activity [43, 47] 100% | inhibition [44] 6.72% | inhibition [45] 24.1%
